Assay results taken from publication PMC7156458, “Synthetic biology based construction of biological activity-related library of fungal decalin-containing diterpenoid pyrones” (Nature Communications, 2020).
Values joined by “and” are separate entries in the source; they are usually repeats but may differ in a detail not shown here. Equal entries are not always repeated. Where two headings read alike, the source gives them in different places.

Columns and labels:
[1] = cytotoxicity in Drosophila DL1 cells; assay type: cell-based; details: Drosophila, DL1 cells (embryonic macrophage-derived), DL1 cells
Method: (§1) We screened the DDPs on the Drosophila assay system for cytotoxicity, inhibitory activity of innate immune signalling and insecticidal activity. The cytotoxicity of the DDPs was evaluated using two cell lines, embryonic macrophage-derived DL1 cells[58]–[60] and larval blood cell-derived l(2)mbn cells, and their IC50 values are listed in Supplementary Table 23.

[2] = tested on: DL1 cells; test: cytotoxicity in Drosophila DL1 cells; assay type: cell-based; details: for IC50: Drosophila melanogaster
Method: as §1

[3] = tested on: SF-539; test: cells; set-up: species or system JFCR39 human cancer cell lines; JFCR39 panel growth inhibition, sulforhodamine B total protein after 48 h; details: for GI50: Homo sapiens, SF-539, 48 h
Method: (§2) Supplementary Note 24. Antiproliferative effects across the panel of JFCR39 cancer cell lines A panel of 39 human cancer cell lines, termed JFCR39, were previously described13-16. Cells were grown in RPMI-1640 (FUJIFILM Wako Pure Chemical Corporation, Tokyo, Japan) supplemented with 1 µg mL-1 kanamycin and 5% (v/v) fetal bovine serum (Nichirei Biosciences Inc, Tokyo, Japan) and incubated at 37°C in a humidified atmosphere supplemented with 5% CO2. Drug efficacy was assessed as changes in total cellular protein after 48 hours of drug treatment using a sulforhodamine B assay. Assays were done in duplicate and the GI50 was calculated as described previously13,16. The antitumor profile across the JFCR39 panel, or fingerprints were then compared to reference database containing ~2000 compounds by COMPARE algorithm16,17. Initially, we evaluated new DDP analogues for their antiproliferative activities across the panel of 39 human cancer cell lines, JFCR39[50],[51].

[4] = tested on: MKN45; test: cells; set-up: species or system JFCR39 human cancer cell lines; JFCR39 panel growth inhibition, sulforhodamine B total protein after 48 h; details: for GI50: Homo sapiens, MKN-45, 48 h
Method: as §2

[5] = tested on: HCT-15; test: cells; set-up: species or system JFCR39 human cancer cell lines; JFCR39 panel growth inhibition, sulforhodamine B total protein after 48 h; details: for Log GI50: 48 h, inhibitor, Log GI50, 48 h
Method: as §2

[6] = tested on: OVCAR-4; test: cells; set-up: species or system JFCR39 human cancer cell lines; JFCR39 panel growth inhibition, sulforhodamine B total protein after 48 h; details: for GI50: Homo sapiens, OVCAR-4, 48 h
Method: as §2

[7] = tested on: HT-29; test: cells; set-up: species or system JFCR39 human cancer cell lines; JFCR39 panel growth inhibition, sulforhodamine B total protein after 48 h; details: for GI50: Homo sapiens, HT-29, 48 h
Method: as §2

[8] = tested on: MKN-B; test: cells; set-up: species or system JFCR39 human cancer cell lines; JFCR39 panel growth inhibition, sulforhodamine B total protein after 48 h; details: 48 h; for Log GI50: inhibitor, Log GI50, 48 h
Method: as §2

[9] = tested on: SF-295; test: cells; set-up: species or system JFCR39 human cancer cell lines; JFCR39 panel growth inhibition, sulforhodamine B total protein after 48 h; details: Homo sapiens, SF-295, 48 h
Method: as §2

[10] = tested on: HCC2998; test: cells; set-up: species or system JFCR39 human cancer cell lines; JFCR39 panel growth inhibition, sulforhodamine B total protein after 48 h; details: for GI50: Homo sapiens, HCC 2998, 48 h
Method: as §2

[11] = tested on: RXF-631L; test: cells; set-up: species or system JFCR39 human cancer cell lines; JFCR39 panel growth inhibition, sulforhodamine B total protein after 48 h; details: 48 h; for GI50: RXF-631L
Method: as §2

[12] = tested on: MKN-A; test: cells; set-up: species or system JFCR39 human cancer cell lines; JFCR39 panel growth inhibition, sulforhodamine B total protein after 48 h; details: 48 h; for Log GI50: inhibitor, Log GI50, 48 h
Method: as §2

[13] = tested on: SK-OV-3; test: cells; set-up: species or system JFCR39 human cancer cell lines; JFCR39 panel growth inhibition, sulforhodamine B total protein after 48 h; details: for GI50: Homo sapiens, SK-OV-3, 48 h
Method: as §2

[14] = tested on: A549; test: cells; set-up: species or system JFCR39 human cancer cell lines; JFCR39 panel growth inhibition, sulforhodamine B total protein after 48 h; details: for GI50: Homo sapiens, A549, 48 h
Method: as §2

[15] = tested on: DMS273; test: cells; set-up: species or system JFCR39 human cancer cell lines; JFCR39 panel growth inhibition, sulforhodamine B total protein after 48 h; details: for Log GI50: 48 h, inhibitor, Log GI50, 48 h
Method: as §2

[16] = tested on: human immunodeficiency virus-1 (HIV-1); test: anti-HIV MAGI assay; assay type: cell-based; details: anti-HIV
Source text: We examined the inhibitory activities of DDPs against various species of bacteria (both gram-negative and gram-positive bacteria), fungi and viruses. […] In contrast, preliminary screening of the DDPs for anti-viral agents with hepatitis B virus (HBV), measles virus (MV), Epstein-Barr virus (EBV), herpes simplex virus (HSV) and human immunodeficiency virus-1 (HIV-1) indicated their selective inhibition of HIV.

[17] = replicate 1, relative to DMSO 1%, read-out: % viability, viability 1
[18] = replicate 2, relative to DMSO 1%, read-out: % viability, viability 2
[19] = DL1 cells, 0.04 µM, replicate 1
[20] = DL1 cells, 0.04 µM, replicate 2
[21] = DL1 cells, cytotoxicity, average of two replicates, read-out: IC50 Average
[22] = DL1 cells, cytotoxicity, replicate 1, read-out: IC50 (1)
[23] = DL1 cells, cytotoxicity, replicate 2, read-out: IC50 (2)
[24] = 48 h, inhibitor, Log GI50, 48 h

Compound `C=C1CC[C@@H]2[C@](C)(CC[C@H]3O[C@H](C=C(C)C)C[C@@]23C)[C@@H]1Cc1c(OC)oc(CO)c(C(=O)OC)c1=O` [Compound 21] has a viability at 0.04 µM [1, 17] of 5.78%, a viability at 0.04 µM [1, 18] of 8.79% and a viability at 0.2 µM [1, 17] of 4.01%. For the same compound, the viability at 0.2 µM [1, 18] was 4.17%, the viability at 1 µM [1, 17] was 3.52% and the viability at 1 µM [1, 18] was 2.4%. For the same compound, the viability at 4 µM [1, 17] was 3.47%, the viability at 4 µM [1, 18] was 3.41% and the viability at 10 µM [1, 17] was 3.5%. It also gave a viability at 10 µM [1, 18] of 3.92%, a viability at 20 µM [1, 17] of 2.31% and a viability at 20 µM [1, 18] of 3.01%. For the same compound, the “Luminescence Raw1” value [2, 19] was 237970, the “Luminescence Raw2” value [2, 20] was 362006 and the “Luminescence Raw1” value ([2]; DL1 cells, 0.2 µM, replicate 1) was 165136. The “Luminescence Raw2” value ([2]; DL1 cells, 0.2 µM, replicate 2) was 171986, the “Luminescence Raw1” value ([2]; DL1 cells, 1 µM, replicate 1) was 144944 and the “Luminescence Raw2” value ([2]; DL1 cells, 1 µM, replicate 2) was 98793. The “Luminescence Raw1” value ([2]; DL1 cells, 4 µM, replicate 1) was 143141, the “Luminescence Raw2” value ([2]; DL1 cells, 4 µM, replicate 2) was 140618 and the “Luminescence Raw1” value ([2]; DL1 cells, 10 µM, replicate 1) was 144223. For the same compound, the “Luminescence Raw2” value ([2]; DL1 cells, 10 µM, replicate 2) was 161530, the “Luminescence Raw1” value ([2]; DL1 cells, 20 µM, replicate 1) was 95187 and the “Luminescence Raw2” value ([2]; DL1 cells, 20 µM, replicate 2) was 124032. The IC50 [2, 21] was under 0.04 µM, the IC50 [2, 22] was under 0.04 µM and the IC50 [2, 23] was under 0.04 µM. It also gave an IC50 ([2]; DL-1 cell line, cell growth, read-out: IC50) of under 0.04 µM, a GI50 [3] of 18.4 µM and a GI50 [4] of 16.2 µM. The GI50 ([5]; Homo sapiens, HCT-15, 48 h) was 17.6 µM, the GI50 [6] was 15.1 µM and the GI50 [7] was 17.4 µM. The GI50 [8] was 16.8 µM, the GI50 [9] was 12.1 µM and the GI50 [10] was 18.2 µM. It also gave a GI50 [11] of 17.3 µM, a GI50 [12] of 14.3 µM and a GI50 [13] of 17.3 µM. It also gave a GI50 [14] of 18.5 µM and a GI50 ([15]; Homo sapiens, DMS-273, 48 h) of 16.6 µM.

In the case of `C=C1CCC2C(C)(CCC=C(C)C)C(O)CCC2(C)C1Cc1c(OC)oc(CO)c(C)c1=O` (stereo not shown) [Compound 16], the EC50 ([16]; average of numeric determinations, read-out: Avg. EC50) is reported as 0.0483 µM, the EC50 ([16]; single determinations, read-out: Efficacy (EC50)) is reported as 0.0556 µM and 0.0364 µM and 0.0546 µM and 0.0464 µM and the “Log GI50” value [3, 24] is reported as -4.953 M. The “Log GI50” value [4, 24] was -4.853 M, the “Log GI50” value [5] was -5.220 M and the “Log GI50” value [6, 24] was -4.966 M. For the same compound, the “Log GI50” value [7, 24] was -4.904 M, the “Log GI50” value [8] was -5.237 M and the GI50 [9] was 2.8 µM. The “Log GI50” value [10, 24] was -4.871 M, the “Log GI50” value ([11]; inhibitor, Log GI50, 48 h) was -4.839 M and the “Log GI50” value [12] was -5.445 M. The “Log GI50” value [13, 24] was -4.993 M, the “Log GI50” value [14, 24] was -5.056 M and the “Log GI50” value [15] was -5.822 M.

Work on `C=C1CCC2C(C)(CCC=C(C)C)C(O)CCC2(C)C1Cc1c(OC)oc(CO)c(C)c1=O` (stereo not shown) [Compound 12] yielded an EC50 ([16]; Human immunodeficiency virus 1, MAGI, MAGI assay, read-out: EC50) of under 0.2 µM, a viability at 0.04 µM [1, 17] of 96.8% and a viability at 0.04 µM [1, 18] of 104%. It also gave a viability at 0.2 µM [1, 17] of 86.4%, a viability at 0.2 µM [1, 18] of 86.2% and a viability at 1 µM [1, 17] of 8.66%. It also gave a viability at 1 µM [1, 18] of 7.51%, a viability at 4 µM [1, 17] of 5.97% and a viability at 4 µM [1, 18] of 5.72%. The viability at 10 µM [1, 17] was 6.32%, the viability at 10 µM [1, 18] was 6.35% and the viability at 20 µM [1, 17] was 3.83%. The viability at 20 µM [1, 18] was 4.39%, the “Luminescence Raw1” value [2, 19] was 1994873 and the “Luminescence Raw2” value [2, 20] was 2143826. The “Luminescence Raw1” value ([2]; DL1 cells, 0.2 µM, replicate 1) was 1779203, the “Luminescence Raw2” value ([2]; DL1 cells, 0.2 µM, replicate 2) was 1776317 and the “Luminescence Raw1” value ([2]; DL1 cells, 1 µM, replicate 1) was 178477. For the same compound, the “Luminescence Raw2” value ([2]; DL1 cells, 1 µM, replicate 2) was 154679, the “Luminescence Raw1” value ([2]; DL1 cells, 4 µM, replicate 1) was 122950 and the “Luminescence Raw2” value ([2]; DL1 cells, 4 µM, replicate 2) was 117902. The “Luminescence Raw1” value ([2]; DL1 cells, 10 µM, replicate 1) was 130161, the “Luminescence Raw2” value ([2]; DL1 cells, 10 µM, replicate 2) was 130882 and the “Luminescence Raw1” value ([2]; DL1 cells, 20 µM, replicate 1) was 78962. The “Luminescence Raw2” value ([2]; DL1 cells, 20 µM, replicate 2) was 90500, the IC50 [2, 21] was 0.342 µM and the IC50 ([2]; DL1 cells, cytotoxicity, average±SEM, read-out: IC50) was 0.34 ± 0.03 µM. It also gave an IC50 [2, 22] of 0.371 µM, an IC50 [2, 23] of 0.314 µM and a GI50 [3] of 11.5 µM. For the same compound, the GI50 [4] was 13.4 µM, the “Log GI50” value [5] was -5.533 M and the GI50 [6] was 9.93 µM. The GI50 [7] was 12.6 µM, the “Log GI50” value [8] was -5.948 M and the GI50 [10] was 15.7 µM. For the same compound, the GI50 [11] was 16.1 µM, the “Log GI50” value [12] was -6.771 M and the GI50 [13] was 12.6 µM. For the same compound, the GI50 [14] was 6.24 µM and the “Log GI50” value [15] was -7.063 M.
